Counter-ions that a name gives are not always drawn.
How the values were obtained:
Staph (Axilla) = assay: In vitro minimum inhibitory (bactericidal) concentration, Staph (Axilla); format: cell-based, staphylococci; conditions: 24 hrs. at 35° C., subculture further 24 hrs.; liquid culture medium
Protocol: (§1) To test the activity of the compounds employed in the present invention in arresting the proliferation of axillary organisms (e.g. corynebacteria and staphylococci) the following in vitro study was carried out:
(§2) Aqueous solutions (or suspensions) were prepared for each test substance. Serial two-fold dilutions of the above were then made in liquid culture medium. Each tube (10 ml of liquid) in the dilution series was inoculated with 0.2 ml of a 1:500 dilution of 24 hr. culture of bacteria. After 24 hrs. at 35° C., tubes showing turbidity (growth) were noted. All non-turbid dilutions were subcultured to liquid growth medium and incubated an additional 24 hrs. at 35° C. The lowest concentration of substance which yielded no growth upon subculture was noted as the minimum inhibitory (bactericidal) concentration (=MIC).
(§3) The numbers appearing in columns 2 and 3 give the minimum inhibitory concentration in percent (MIC %) for the materials tested i.e. the minimum concentration in percent of the agent tested which will inhibit the proliferation of the test organisms. The entries in the last column are judgments with respect to the activity of the agent tested.

Diphth (Axilla) = assay: In vitro minimum inhibitory (bactericidal) concentration, Diphth (Axilla); format: cell-based, aerobic diphtheroids (corynebacteria); conditions: 24 hrs. at 35° C., subculture further 24 hrs.; liquid culture medium
Protocol: as §1, §2, §3

[1] = tested on: axillary organisms (e.g. corynebacteria and staphylococci); assay: In vitro Studies - Summary, judgment of activity against axillary organisms; format: cell-based; conditions: Staph and Diphth (Axilla)
Protocol: as §1, §2, §3

Compound	MIC (%) - cidal, Staph (Axilla) (Staph (Axilla)) [%]	MIC (%) - cidal, Diphth (Axilla) (Diphth (Axilla)) [%]	Comments (judgment with respect to the activity of the agent tested) [1]
CC(CNC1CCCCC1)OC(=O)c1ccccc1 (stereo not drawn) [Hexylcaine HCl]	0.16	0.16	–
c1ccc2c(CC3=NCCN3)cccc2c1 [Naphazoline HCl]	0.31	0.31	–
CN1CCC2=C(C1)C(c1ccccc1)c1ccccc12 (stereo not drawn) [Phenindamine tartrate]	0.04	0.08	Good Activity
COc1ccc(CN(CCN(C)C)c2ccccn2)cc1 [Pyrilamine maleate]	0.63	0.63	–
CCCCNc1ccc(C(=O)OCCN(C)C)cc1 [Tetracaine HCl]	0.08	0.08	–
CN(C)CCN(Cc1ccccc1)c1ccccn1 [Tripelennamine HCl]	0.63	0.31	–
Cc1cc(C(C)(C)C)cc(C)c1CC1=NCCN1 [Xylometazoline HCl]	0.08	0.04	–

Source: patent US4741899A, “Process for arresting the proliferation of organisms that convert axillary secretions to malodorous materials” (Bristol-Myers Company, priority 1983, dated 1988)
